Measurements from patent publication US9526793B1, “Salts of phenylethylamines and inorganic acids and methods of use thereof” (priority 2013, dated 2016).
Where two headings read alike, the source gives them in different places.

Experiments:
[1] = Subject-reported duration of euphoria and of vasodilation (drop in systolic blood pressure, sphygmomanometer); assay type: in vivo, human; settings: 600 mg oral capsule
Protocol: (§1) Solid dose capsules (size “00”, gelatin) were prepared containing either 600 mg of 2-phenylethylamine nitrate or equimolar quantities of an admixture of 2-phenylethylamine HCl and sodium nitrate (NaNO3). A placebo filled with an inert substance (200 mesh guar gum) was also prepared. The subject was given a single capsule containing 2-phenylethylamine nitrate, an admixture of 2-phenylethylamine HCl and NaNO3, or the placebo.
The subject estimated that the effect of the 2-phenylethylamine nitrate lasted substantially longer than the effect of the admixture. For example, the 2-phenylethylamine nitrate produced a sense of euphoria that typically lasted 50% longer than that experienced with the admixture.

[2] = Tolerability of daily oral doses; assay type: in vivo
[3] = Sexual performance of the subject (penile erectile genesis and maintainability); assay type: in vivo, human; settings: single oral capsule
Protocol: Solid dose capsules were prepared as described in Example 3. The subject was given a single capsule containing 2-phenylethylamine nitrate, an admixture of 2-phenylethylamine HCl and NaNO3, or a placebo.
Sexual performance was evaluated in the subject by the relative length of time and number of times they were able to maintain an erection and engage in sexual intercourse (i.e., penile erectile genesis and maintainability) with their partner during a given period.

[4] = Length of time the subject maintained a 5.5 mph pace on an elliptical trainer (athletic performance); assay type: in vivo, human; settings: single oral capsule, 600 mg 2-phenylethylamine nitrate or equimolar admixture
Protocol: as §1
After oral administration of the compound, the subject's ability to maintain a speed of about 5.5 mph on an elliptical trainer was measured. The length of time was recorded before the subject became fatigued and was no longer able to maintain this pace (see Table 1). Athletic performance was measured at times soon after administration of the compound before the subject had engaged in significant physical activity that day (at about 9:30 am each day). The subject was blinded to the identity of the capsules.

[5] = Clinical observation of onset and duration of athletic performance-enhancing effects after oral dose; assay type: in vivo
[6] = as measured using the HCl salt; cited from earlier work
[7] = cited from earlier work

Row | SMILES | Duration of vasodilation versus the admixture ([1]; measured by drop in systolic blood pressure) | Sense of euphoria: duration longer than that experienced with the admixture ([1]; subject's estimate, versus admixture) [%] | Daily oral dose tolerated without significant side effects [2] [grams] | Sexual performance after administration ([3]; compared with admixture or placebo) | Reduction of refractory time between erections ([3]; subject, self-reported) [%] | Percent Improvement Compared to Placebo [4] [%] | Time (Minutes) that the subject maintained a 5.5 mph pace on an elliptical ([4]; average of several occasions) [min] | Time to clinically observable athletic performance-enhancing effects after ingestion ([5]; single dose of 0.100 grams to 0.600 grams) [min] | Time for which athletic performance-enhancing effects are clinically observable ([5]; single, oral dose as low as 0.200 grams) [h] | pKb [6] | half-life ([7]; in vivo) [min] | Increase of brain levels when taking an MAO inhibitor ([7]; initial 2-phenylethylamine brain concentration low) [fold] | Increase of brain levels when taking an MAO inhibitor ([7]; initial concentration high)
1 | NCCc1ccccc1.O=[N+]([O-])O [2-Phenylethylamine Nitrate, 2-phenylethylamine nitrate] | at least twice as long | 50 | ≤ 3.00 | surprising enhancement in their sexual performance | ~35 | 10 | 66 | ≤ 10 | ≤ 6 |  |  |  | 
2 | NCCc1ccccc1 [2-phenylethylamine] |  |  |  |  |  |  |  |  |  | 4.17 | 5 to 10 | ~1000 | 3-4 times
